The values below come from patent publication US7759317B2, “Analgesic and anti-inflammatory compositions and methods with flavonoid glycoside-type compounds” (BMB Patent Holding Corporation, priority 2006, dated 2010).

Several values for one entry are separate records, joined by “and”; a condition that tells them apart may be missing. Equal values may be shown once.

Test [1] deals with capsaicin-treated hindpaw. As to the kind of experiment: Analgesic Bioassay Protocol: rat hindpaw withdrawal latency to radiant heat after capsaicin sensitisation. The format is in vivo, Sprague-Dawley rats. To be noted: n=5. How it is done:
A rat hindpaw assay was used to determine the therapeutic effectiveness of various extracts/compounds as analgesics in the present invention. Sprague-Dawley rats (225-250 g, male) were anesthetized with urethane and placed on their sides on a disposable Chux pad. Both hindpaws for each rat were blackened with India ink which was allowed to dry for 10 minutes. An ELH projector lamp calibrated to a standard mW/cm was used as a pain stimulus and was condensed into an area of 5×15 mm on each hindpaw and placed perpendicular to, and 72 mm from, each hindpaw. Multiple baseline hindpaw withdrawal latency times were recorded (in seconds) for each medial and each lateral surface of each hindpaw. Subsequently, 100 μl of 1 μmolar capsaicin was applied with a pipette to cover one hindpaw of each animal and allowed to dry for 10 minutes, rendering the capsaicin-treated hindpaw hypersensitive to pain stimulus relative to the non-capsaicin treated hindpaw (and thereby decreasing the withdrawal latency period for the capsaicin-treated hindpaw relative to the non-treated hindpaw). Both hindpaws were then re-blackened with India ink which was allowed to dry for 10 minutes, and hindpaw withdrawal latencies were recorded for both the capsaicin-treated and untreated hindpaws on both the medial and lateral aspects of both hindpaws at 20, 25 and 30 minutes. […] By contrast, only minor drops in the withdrawal latency periods of the untreated hindpaws was seen, and the effect that was observed is believed to be due to the central mechanism effect of capsaicin-treatment on the other hindpaw. To determine the analgesic properties of each fraction, 100 μl of each fraction were applied to the capsaicin-treated hindpaw by pipette and permitted to dry (the untreated hindpaw was not treated with the fraction). Hindpaw withdrawal latencies were then recorded at 5, 20 and 30 minutes for both the capsaicin/fraction-treated hindpaw and the untreated hindpaw. An increase in the hindpaw withdrawal time was indicative of an analgesic effect by the applied fraction.

In another test the test system is mouse air pouch. In words: Inflammation Bioassay Protocol: mouse air pouch assay, carrageenan-induced, white blood cell count in exudate. The format is in vivo, mice. As for the experimental part:
A mouse air pouch assay was used to determine the therapeutic effectiveness of various extracts/compounds as anti-inflammatories in the present invention.
To induce air pouches, 10-15 week old mice were injected subcutaneously on the back with 3 ml of air.
On day 2, the pouches were reinflated with 1.5 m. of air.
On day 6, inflammation was induced by injecting 1 ml of a suspension of carrageenan (2% weight/volume in calcium-free and magnesium-free phosphate buffered saline (PBS) solution) into the air pouch.
100 μL of solution including test compounds were injected with the carrageenan (additional 100 μL of PBS were injected into the controls).
After 4 hours, the mice were sacrificed by including C02 narcosis, the pouches were flushed with 2 ml of PBS, and exudates were harvested.
Exudates were diluted 1:1 with 0.015% methylene blue in PBS.
White blood cells were counted in a standard hemocytometer chamber (American Optical, Buffalo, N.Y.).

Where [2] appears, read: white blood cells in air pouch exudate, individual mice, 4 hours after carrageenan.

For `O=c1cc(-c2ccc(O)c(O)c2)oc2cc(OC3OC(COC4OCC(O)(CO)C4O)C(O)C(O)C3O)cc(O)c12` [Compound 580, luteolin 7-(6″-β-D-apiofuranosyl)-β-D-glucopyranoside], in test [1] (average of all post-capsaicin latencies, before test substance), the “Avg All Cap” value was 6.3 s. Also, the “Avg Ext 5” value in test [1] (latency 5 minutes after application to capsaicin-treated hindpaw, amount (mg)) was found to be 13.7 s. In test [1] (latency 20 minutes after application to capsaicin-treated hindpaw, amount (mg)), the “Avg Ext 20” value turned out to be 9.6 s. Further, the “Avg Cap 20” value in test [1] (latency 20 minutes after capsaicin, before test substance) turned out to be 5.8 s. Moreover, in test [1] (latency 25 minutes after capsaicin, before test substance), the “Avg Cap 25” value turned out to be 7.2 s. Further, the “Avg Ext 30” value in test [1] (latency 30 minutes after application to capsaicin-treated hindpaw, amount (mg)) came to 9.4 s. Further, the “Avg Cap 30” value in test [1] (latency 30 minutes after capsaicin, before test substance) amounted to 6 s. Besides, in test [1] (withdrawal latency before capsaicin and before test substance), the “Avg Baseline” value is 9.3 s. The “Average Cells (10^6/ml)” value in the test on mouse air pouch (mean of five treated mice, control mice 2.67) is reported as 1.00 10^6/ml. In addition, the “anti-inflammatory effects, comparison with reference drugs” value in the test on mouse air pouch (result in words) was “comparable to 0.5-1.0 mg/kg/week of chronic methotrexate, or 1.5 mg/kg acute dose of dexamethasone”. For the same compound, in the test on mouse air pouch (setting [2]), the “Cells (10^6/ml)” value is 0.75 10^6/ml and 1.17 10^6/ml and 0.72 10^6/ml and 1.16 10^6/ml and 1.22 10^6/ml; the Cells/ml was 7.50E+05 Cells/ml and 1.17E+06 Cells/ml and 7.20E+05 Cells/ml and 1.16E+06 Cells/ml and 1.22E+06 Cells/ml. Further, the “Average Count” value in the test on mouse air pouch (white blood cells, average of 4 hemocytometer chambers, individual mice, 100 μL test solution with carrageenan, exudate after 4 hours) is 37.50 and 58.50 and 24.00 and 38.75 and 40.50.
